Experimental data taken from patent publication US20250186540A1, “VIPR2 ANTAGONIST PEPTIDE FOR SUPPRESSING CANCER METASTASIS” (ICHIMARU PHARCOS CO., LTD., priority 2022, published 2025).
Positions of bridges follow the written chain, without caps; N, C: chain ends.

Key:
[1] = tested on: phosphorylation of AKT in MDA-MB-231 cells stably expressing VIPR2-EGFP; assay: Phosphorylation of AKT by VIP in the presence and absence of KS-133 (Western blotting); assay type: cell-based
Protocol: (§1) Western blotting was performed according to a previously described method (Asano et al. 2014, Biol. Open3, 463-474; Asano et al. 2019, Sci. Rep. 9, 12729).
Pathway by VIP in MDA-MB-231 Cells Stably Expressing VIPR2-EGFP>Phosphorylation of AKT by VIP in MDA-MB-231 cells stably expressing VIPR2-EGFP was evaluated in the presence and absence of KS-133.

[2] = tested on: MDA-MB-231 breast cancer cells stably expressing VIPR2-EGFP; assay: Transwell migration test with KS-133; assay type: cell-based
Protocol: (§2) In addition, the measurement was performed according to the method described above (Asano et al. 2012, Mol. Cell Biol. 32, 3242-3252) using a Boyden chamber. To each well, 600 μL of a serum-free culture solution containing 200 nM VIP was added. Cells (1×10^4 cells) were suspended in 100 μL of a serum-free culture solution and added to the insert. The cells were allowed to migrate for 30 or 48 hours at 37° C. Non-mobile cells adhering to the upper surface of the membrane were removed, and mobile cells adhering to the lower surface were fixed with 4% paraformaldehyde and counted with a fluorescence microscope.
Using the transwell shown in FIG. 7, the effect of KS-133 on migration of MDA-MB-231 breast cancer cells stably expressing VIPR2-EGFP was examined. MDA-MB-231 cells stably expressing VIPR2-EGFP were suspended in serum-free medium containing KS-133 at each of the concentrations of 0 nM to 1000 nM (1×10^4 cells/100 μL). A serum-free medium 6 containing 200 nM VIP and KS-133 at each of the concentrations was added to each well in an amount of 600 μL, and an insert 3 having 3 μm pores 5 was immersed in the well. Then, the suspended cells 1 were added to the insert 3, and incubated under conditions of 37° C. and 5% CO2. After 48 hours, the cells were fixed, cells on the surface of the insert 3 were removed, and then fluorescence of EGFP of cells 2 that had moved to the rear surface in response to induction by VIP was detected with a fluorescence microscope. The number of the cells that had moved to the rear surface of the insert was graphed based on the fluorescence image.
FIG. 8A is a fluorescence micrograph showing migrated cells. FIG. 8B and Table 2 show the number of migrated cells when each concentration of KS-133 was added.

[3] = tested on: MCF-7 cells overexpressing VIPR2-EGFP; assay: Cell proliferation test with KS-133; assay type: cell-based; conditions: for Number of cells (mean value): 100 nM KS-133, 100 nM VIP, 2% FBS
Protocol: This effect was confirmed. The cell proliferation test was performed according to NON-PATENT DOCUMENT 3. MCF-7 cells overexpressing VIPR2-EGFP were seeded in a 35 mm culture dish at a density of 1×10^5 cells/dish for 6 hours, and the culture medium was replaced with a fresh medium containing 2% FBS, 100 nM VIP, and 0 nM or 100 nM KS-133 (day 0). Cells were observed under a BZ-X800 fluorescence microscope (Keyence, Kyoto, Japan) and the number of cells was counted every 24 hours for up to 4 days by trypan blue dye staining using a hemacytometer (timecourse experiment).

[4] = tested on: psychiatric disease model mice; conditions: NON-PATENT DOCUMENT 2; cited from earlier work
[5] = tested on: phosphorylation of AKT in MCF-7 cells; assay: Phosphorylation of AKT on VIP stimulation (Western blotting); assay type: cell-based; conditions: MCF-7 cells starved 3 hours, 0 nM to 1000 nM VIP for 10 minutes
Protocol: as §1
To investigate whether VIP is involved in cell movement via the PI3K/PI(3,4,5)P3 pathway, phosphorylation of AKT, a downstream signal of the PI3K/PI(3,4,5)P3 pathway in cancer cells, was assessed by Western blotting. […] All experiments were independently performed at least three times, and similar data were obtained.

[6] = tested on: MDA-MB-231 cells stably expressing EGFP or VIPR2-EGFP; assay: Transwell chamber assay of VIP-induced movement; assay type: cell-based; conditions: 200 nM VIP; 30 hours
Protocol: as §2
Cells were suspended in serum-free media (1×10^4 cells/[…]). A serum-free medium 6 containing 200 nM VIP was added to each well in an amount of 600 μL, and an insert 3 having 3 μm pores 5 was immersed in the well. […] After 30 hours, cells were fixed, cells on the surface of the insert 3 were removed, and then fluorescence of EGFP of cells 2 that had moved to the rear surface in response to VIP was detected with a fluorescence microscope. The number of the cells that had moved to the rear surface of the insert was graphed based on the fluorescence image. […] VIP (200 nM) was added to the well, the cells were added to the insert and incubated at 37° C. for 30 hours, and cells that had moved to the rear side of the insert were quantified and shown graphically.

[7] = tested on: MDA-MB-231 cells stably expressing EGFP or VIPR2-EGFP; assay: WAVE2-rich lamellipodia area after VIP stimulation; assay type: cell-based; conditions: 100 nM VIP; 30 minutes
Protocol: MDA-MB-231 cells (2×10^5 cells) stably expressing EGFP or VIPR2-EGFP were seeded on collagen-coated cover glass and incubated under conditions of 37° C. and 5% CO2. After 24 hours, the cells were washed with serum-free medium, and fresh serum-free medium was added to incubate the cells (under conditions of 37° C. and 5% CO2). After 3 hours, the medium was replaced with serum-free medium containing 100 nM VIP, and incubation for 30 minutes was performed. The cells were fixed with 4% paraformaldehyde, and immunostained using an anti-WAVE2 antibody. The surface area of a WAVE2-rich region immediately below the cell membrane was measured from a fluorescently-stained image of the same and graphed.
Data are shown as mean±SD. **: p<0.01, ***: p<0.001, between indicated groups (Kruskal-Wallis test and Dunn's multiple comparison test). “n.s.” indicates not statistically significant. […] The MDA-MB-231 cells stably expressing VIPR2-EGFP had more pronounced area expansion of lamellipodia compared to the control MDA-MB-231 cells expressing EGFP.

| Substance | expression of AKT [1] | phosphorylation of AKT induced by VIP ([1]; presence vs absence of KS-133) | VIP-induced cell migration ([2]; 200 nM VIP, KS-133 0 nM to 1000 nM, 48 hours) | Mean cell count (migrated cells) ([2]; KS-133 30 nM, 200 nM VIP, 48 hours) | Mean cell count (migrated cells) ([2]; KS-133 100 nM, 200 nM VIP, 48 hours) | Mean cell count (migrated cells) ([2]; KS-133 300 nM, 200 nM VIP, 48 hours) | Mean cell count (migrated cells) ([2]; KS-133 1000 nM, 200 nM VIP, 48 hours) | KS-133 concentration showing a significant difference in migration compared to the absence of KS-133 ([2]; Kruskal-Wallis test and Dunn's multiple comparison test) | Number of cells (mean value) ([3]; Day 0) | Number of cells (mean value) ([3]; Day 1) | Number of cells (mean value) ([3]; Day 2) | Number of cells (mean value) ([3]; Day 3) | Number of cells (mean value) ([3]; Day 4) | cell proliferation ([3]; MCF-7 cells overexpressing VIPR2, addition of KS-133) | cognitive decline [4] | phosphorylation of AKT [5] | number of cells that had moved to the back side of the insert [6] | WAVE2-rich area of lamellipodia [7] |
| --- | --- | --- | --- | --- | --- | --- | --- | --- | --- | --- | --- | --- | --- | --- | --- | --- | --- | --- |
| Ac-c[Cys^1-Pro^2-Pro^3-Tyr^4-Leu^5-Pro^6-c(Lys^7-Tyr^8-Leu^9-Cys^10]-Asp^11)-Leu^12-Ile^13-NH2 (Ac-CPPYLPKYLCDLI-NH2; disulfide 1-10; lactam 7-11; SMILES CC[C@H](C)[C@H](NC(=O)[C@H](CC(C)C)NC(=O)[C@@H]1CC(=O)NCCCC[C@@H]2NC(=O)[C@@H]3CCCN3C(=O)[C@H](CC(C)C)NC(=O)[C@H](Cc3ccc(O)cc3)NC(=O)[C@@H]3CCCN3C(=O)[C@@H]3CCCN3C(=O)[C@@H](NC(C)=O)CSSC[C@H](NC(=O)[C@H](CC(C)C)NC(=O)[C@H](Cc3ccc(O)cc3)NC2=O)C(=O)N1)C(N)=O) [KS-133] | did not affect the expression of AKT | strongly suppressed phosphorylation of AKT induced by VIP in an addition concentration-dependent manner | suppressed | 4.35 Cells/mm^2 | 2.08 Cells/mm^2 | 1.39 Cells/mm^2 | 0.78 Cells/mm^2 | ≥ 100 nM | 1.0 × 10^5 | 0.85 × 10^5 | 0.65 × 10^5 | 0.45 × 10^5 | 0.2 × 10^5 | significantly suppressed from Day 2 of culture or later | suppress cognitive decline | – | – | – |
| Vasoactive intestinal peptide [VIP] | – | – | – | – | – | – | – | – | – | – | – | – | – | – | – | phosphorylated in a VIP addition concentration-dependent manner | increased | expanded the WAVE2-rich area of lamellipodia |
